Here are results for 58 compounds from PMC12040169 (PLOS Biology, 2025).

Structures are written as SMILES.

What is called viability is a read-out of living cells in per cent, often relative to untreated cells.

The nature of the data set: in vitro. The settings on record: human, hela cells, % viability.
With `CSCCN1CCC(Oc2nccnc2OCC2COc3ccccc3O2)CC1` (stereo not shown) [CBK082996T], the viability at 28.5 h, 10 µM was 92.7%. With `Nc1ncc(-c2cc(C(F)(F)F)cc(C(F)(F)F)c2)nc1NCc1ccco1` [CBK063689], the viability at 28.5 h, 10 µM stood at 91.6%. Turning to `Cc1cccn2cc(COC(=O)c3ccc(F)cc3N)nc12` [CBK298310], the viability at 28.5 h, 10 µM came to 54.1%.

Take `Cc1ccccc1OCCn1c(=N)n(CC(C)C)c2ccccc21` [CBK265392B]: the viability at 28.5 h, 10 µM was determined as 94.9%.

Consider `O=C(NCCCN1CCOCC1)C1CCCN1S(=O)(=O)c1ccc(Cl)cc1` (stereo not shown) [CBK269944], for which the viability at 28.5 h, 10 µM is 92.1%.

As for `O=C(c1ccc(COc2ccc(I)cc2)cc1)N1CCCCCC1` [CBK058852], the viability at 28.5 h, 10 µM turned out to be 83.4%.

Take `COc1ccc(-c2cc(NCc3cc(OC)c(OC)c(OC)c3)ncn2)cc1` [CBK091184]: the viability at 28.5 h, 10 µM worked out at 90%.

Regarding `O=C(O)COCC(=O)N1CCN(c2ccccc2Cl)CC1` [CBK268155], the viability at 28.5 h, 10 µM was 108%. Turning to `O=C(NCC1COc2ccccc2O1)NC(=O)C1CCNCC1` (stereo not shown) [CBK051096], the viability at 28.5 h, 10 µM turned out to be 91.6%.

Take `COCCNC(=O)c1cc2n(n1)C(C(F)(F)F)CC(c1cccs1)N2` (stereo not shown) [CBK307614]: the viability at 28.5 h, 10 µM amounted to 113%. Consider `O=S(=O)(Nc1ccc(-c2nnn[nH]2)cc1)c1ccc(F)c(C(F)(F)F)c1` [CBK154759], for which the viability at 28.5 h, 10 µM worked out at 96.9%. For the compound `O=C(Nc1cccc(Cl)c1)c1nnc(C(=O)NC2CCCCC2)s1` [CBK294406], the viability at 28.5 h, 10 µM was determined as 92.6%. Then `CS(=O)(=O)c1ccc2ncnc(NCC(CO)Cc3ccccn3)c2c1` (stereo not shown) [CBK306493], with 88.7%. `O=C(CSC1c2ccccc2Oc2ccccc21)Nc1ccccc1C(=O)O` [CBK266499]: the viability at 28.5 h, 10 µM came to 98.4%.

In the case of `OCCCc1nc2ccccc2n1CCOc1ccccc1` [CBK297728], the viability at 28.5 h, 10 µM was 97.8%.

As to `O=C(Nc1sc2c(c1C(=O)NCCc1ccccc1)CCC2)c1sc2ccccc2c1Cl` [CBK266379], the viability at 28.5 h, 10 µM was found to be 105%. Turning to `CN1CCN(Cc2nc3c([nH]2)c(=O)n(C)c(=O)n3C)CC1` [CBK269578], the viability at 28.5 h, 10 µM is 104%. Take `Cc1cnc2[nH]c(C3CCN(C(=O)c4cnn(C)c4C)CC3)cc2c1` [CBK284684]: the viability at 28.5 h, 10 µM worked out at 88.8%. In the case of `OC1CCN(Cc2c(-c3cccs3)[nH]c3ncccc23)CC1` [CBK283318], the viability at 28.5 h, 10 µM amounted to 79.9%. On to `CCNc1nccnc1-c1cccc(O)c1` [CBK088593], for which the viability at 28.5 h, 10 µM worked out at 103%. Then `Cc1cc(NS(=O)(=O)c2cccc3nsnc23)n(C)n1` [CBK067246], with 95.4%; and `Cc1ccc(NC(=O)C2CC(=O)Nc3nc4ccccc4n32)cc1` (stereo not shown) [CBK288134], with 113%; and `Cc1ccc(C(C)CCN2CC3CCCN3C[C@H]2C)o1` (stereo partly shown) [CBK285467], with 101%.

As to `CN(C)c1cccc(Nc2ncc(-c3ccc(N4CCOCC4)cc3)n3ccnc23)c1` [CBK091222], the viability at 28.5 h, 10 µM worked out at 94.5%. As for `COC(=O)CN1C(CN2CCOCC2)=Nc2ccc(Br)cc2C1c1ccccc1` (stereo not shown) [CBK262981], the viability at 28.5 h, 10 µM turned out to be 89.8%. For the compound `Cc1ccc(S(=O)(=O)N2CCN(CC(O)COc3ccc4ccccc4c3)CC2)cc1` (stereo not shown) [CBK266239], the viability at 28.5 h, 10 µM was 97.7%. Regarding `COc1ccc([C@H]2CN(Cc3ccccc3)C[C@@H]2NC(=O)CCc2ccco2)cc1` [CBK286477], the viability at 28.5 h, 10 µM worked out at 87.6%.

`CC(=O)Nc1sc2c(c1-c1nc3ccccc3s1)CCN(C(C)C)C2` [CBK211288]: the viability at 28.5 h, 10 µM worked out at 3.98%.

Regarding `N/C(CSc1cccc2c1CCCC2)=N\O` [CBK006787C], the viability at 28.5 h, 10 µM amounted to 101%. Then `CC(Oc1cccc(Cl)c1)C(=O)O/N=C(\N)Cc1cccc2ccccc12` (stereo not shown) [CBK266033], with 90.3%. Take `COc1ccc(Nc2nc(-c3ccc(Cl)cc3)cn3ccnc23)cn1` [CBK066254]: the viability at 28.5 h, 10 µM was 113%. The value for `COCCNc1nc(-c2cccc3cccnc23)cn2ccnc12` [CBK037314] was 95.3%.

Regarding `CCCNc1nc(-c2cc(OC)c(OC)c(OC)c2)cn2ccnc12` [CBK066363], the viability at 28.5 h, 10 µM was determined as 99.2%. With `COc1ccc(C(NC(=O)c2cccc(OC)c2)c2cc(Cl)c3cccnc3c2O)cc1` (stereo not shown) [CBK264027], the viability at 28.5 h, 10 µM was found to be 90.7%.

Take `COC(=O)[C@@H](C)NC(=O)[C@@H]1CN(C(=O)NC(C)C)CCN1C(=O)c1cccs1` [CBK289624]: the viability at 28.5 h, 10 µM was 110%. `COc1ccc(Cl)cc1N1CCN(C/C=C/c2ccccc2)CC1` [CBK126415]: the viability at 28.5 h, 10 µM amounted to 90.3%. For the compound `S=C(NCCN1CCCCC1)NCc1ccccc1` [CBK263066], the viability at 28.5 h, 10 µM is 112%.

Turning to `COc1ccc(C(=O)N2CCC3(CCN(Cc4cccc(C#N)c4)C3)C2)cc1OC` (stereo not shown) [CBK132153], the viability at 28.5 h, 10 µM came to 87.7%.

For `O=C(Nc1ccccc1-c1nc2ccccc2[nH]1)c1ccc2c(c1)OCCO2` [CBK293924], the viability at 28.5 h, 10 µM was determined as 104%. As for `Cn1nc(C(C)(C)C)cc1C(=O)N1CCNC(=O)C1Cc1ccccc1-c1ccc(F)cc1` (stereo not shown) [CBK285830], the viability at 28.5 h, 10 µM amounted to 101%. Consider `CC(C)NC(=O)CN1CCN(c2ccc(C#N)cc2Cl)CC1` [CBK305470], for which the viability at 28.5 h, 10 µM was determined as 88.3%. Take `CN(C1=NS(=O)(=O)c2ccccc21)c1ccc(OC(=O)C2CC(=O)N(c3ccccc3)C2)cc1` (stereo not shown) [CBK263849]: the viability at 28.5 h, 10 µM is 87%. As to `OC1CCC(Nc2cncc(-c3cccc(Cl)c3)n2)CC1` (stereo not shown) [CBK066031], the viability at 28.5 h, 10 µM was determined as 91%. As for `CS(=O)(=O)Nc1ccc(-c2cc(F)cc(F)c2)c2ccccc12` [CBK083743], the viability at 28.5 h, 10 µM stood at 89.8%. Turning to `CCn1c(=O)n(CCC(N)=O)c2cc(S(=O)(=O)N(C)C)ccc21` [CBK305577], the viability at 28.5 h, 10 µM stood at 99.6%.

With `COc1cccc(C2C=C(c3cccnc3)Nc3ncnn32)c1OC` (stereo not shown) [CBK288062], the viability at 28.5 h, 10 µM was found to be 95.1%. Then `COc1ccccc1-c1nccnc1N[C@@H](CO)C(C)C` [CBK089034], with 93.6%; and `Cn1c(SCCC(=O)O)nnc1-c1ccc2c(c1)OCO2` [CBK269842], with 92.6%. Take `CCOC(=O)CCCNC(=O)N(CC)Cc1ccccc1` [CBK155252]: the viability at 28.5 h, 10 µM was determined as 106%. As for `O=C(CC1CCCCC1)N1CCC(n2nc(C3CC3)ccc2=O)CC1` [CBK284241], the viability at 28.5 h, 10 µM worked out at 88.6%. The value for `CN1CCC(OCCCn2ccnc2-c2nccn2C)CC1` [CBK307683] was 96.2%. The value for `O=C(NCCn1nc(-c2ccco2)ccc1=O)C1CCCCC1` [CBK283743] was 105%; that for `O=C(O)c1ccc(-c2ccc(/C=C3/NC(=O)N(c4ccc(Cl)cc4)C3=O)o2)cc1` [CBK077970] was 103%. Take `CCOc1ccc(-c2c3c(c(-c4ccccc4)n2-c2ccc(N)cc2)C(=O)c2ccccc2C3=O)cc1` [CBK262685]: the viability at 28.5 h, 10 µM was 40%.

On to `CCCC/C=C/c1cncc(NCCc2c[nH]c3ccccc23)n1` [CBK066081], for which the viability at 28.5 h, 10 µM came to 100%. The value for `CN1CCC[C@H]1C(=O)Nc1nc2c(s1)C(=O)CC(C)(C)C2` [CBK144101] was 98.8%; that for `COc1cccc(/C=C2/SC(=S)NC2=O)c1OCCCOc1ccc(C)cc1C` [CBK264441] was 94.8%; that for `Nc1ccc(-c2cc(F)cc(F)c2)c2ccccc12` [CBK084314] was 93.2%.
